Laboratory results taken from US12655116B2, “Substituted isophthalic acid diamides” (Bayer Aktiengesellschaft, priority 2020, dated 2026).

Assays:
MATIN [1] = experiment: Pre-emergence herbicidal action against MATIN; format: in vivo, Matricaria inodora; details: Tripleurospermum inodorum, 504 h; for pest or weed control at 20 g/ha: dosage 20 g/ha; for pest or weed control at 80 g/ha: dosage 80 g/ha; for pest or weed control at 320 g/ha: dosage 320 g/ha
Outline: (§1)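 Pre-emergence soil-surface spray of formulated compound (WP or EC; 600 to 800 l/ha; 0.2% wetting agent) over seeds sown in sandy loam. After 3 weeks under greenhouse conditions, damage is estimated visually in percent against untreated plants.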

STEME = experiment: Post-emergence herbicidal action against STEME; format: in vivo, Stellaria media; details: Stellaria media, 504 h; for pest or weed control at 5 g/ha: dosage 5 g/ha
Outline: (§2)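 Spray, one-leaf stage: WP or EC compound in water, 600–800 l/ha, 0.2% wetting agent. Plants held about 3 weeks in the greenhouse, then visually rated in percent of kill compared with untreated controls.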

AVEFA = experiment: Post-emergence herbicidal action against AVEFA; format: in vivo, Avena fatua; details: Avena fatua, 504 h, visual assessment about 3 weeks after treatment, 100% = plants have died, 0% = like control plants
Outline: as §2

PHBPU [2] = experiment: Post-emergence herbicidal action against PHBPU; format: in vivo, Pharbitis purpurea; details: Ipomoea purpurea, 504 h; for pest or weed control at 20 g/ha: dosage 20 g/ha; for pest or weed control at 80 g/ha: dosage 80 g/ha
Outline: as §2

DIGSA [3] = experiment: Post-emergence herbicidal action against DIGSA; format: in vivo, Digitaria sanguinalis; details: Digitaria sanguinalis, 504 h
Outline: as §2

PHBPU [4] = experiment: Pre-emergence herbicidal action against PHBPU; format: in vivo, Pharbitis purpurea; details: Ipomoea purpurea, 504 h; for pest or weed control at 80 g/ha: dosage 80 g/ha
Outline: as §1

MATIN [5] = experiment: Post-emergence herbicidal action against MATIN; format: in vivo, Matricaria inodora; details: Tripleurospermum inodorum, 504 h; for pest or weed control at 20 g/ha: dosage 20 g/ha; for pest or weed control at 5 g/ha: dosage 5 g/ha; for pest or weed control at 80 g/ha: dosage 80 g/ha
Outline: as §2

DIGSA [6] = experiment: Pre-emergence herbicidal action against DIGSA; format: in vivo, Digitaria sanguinalis; details: Digitaria sanguinalis, 504 h; for pest or weed control at 20 g/ha: dosage 20 g/ha; for pest or weed control at 80 g/ha: dosage 80 g/ha; for pest or weed control at 320 g/ha: dosage 320 g/ha
Outline: as §1

harmful plants = experiment: Comparative experiments: herbicidal pre-emergence action versus compounds known from D1 (WO 2012/028579 A1); format: in vivo; set-up: key to Herbicidal action against ALOMY / Herbicidal action against AVEFA / Herbicidal action against SETVI / Herbicidal action against AMARE / Herbicidal action against STEME / Herbicidal action against VIOTR / Herbicidal action against HORMU / Herbicidal action against MATIN / Herbicidal action against ABUTH: % herbicidal activity: 0 = like control, 100 = plants died; details: 80 g a.i./ha
From the text: Seeds of monocotyledonous and dicotyledonous weed plants and crop plants are laid out in sandy loam soil in wood-fiber pots and covered with soil. The compounds of the invention, formulated in the form of wettable powders (WP) or as emulsion concentrates (EC), are then applied to the surface of the covering soil in the form of an aqueous suspension or emulsion at a water application rate equivalent to 600 to 800 l/ha, with addition of 0.2% wetting agent. After the treatment, the pots are placed in a greenhouse and kept under good growth conditions for the trial plants. The damage to the test plants is scored visually after a test period of 3 weeks by comparison with untreated controls (herbicidal activity in percent (%): 100% activity=the plants have died, 0% activity=like control plants). […] The tables below illustrate, in an illustrative manner, the post-emergence herbicidal action of the compounds of the invention, the herbicidal activity being stated in percent. In the experiments that follow, herbicidal action of numerous inventive compounds and the structurally closest compounds known from D1 (WO 2012/028579 A1) were compared under the above-specified conditions by the pre-emergence and post-emergence method. The example numbers given in the tables relate to the compounds disclosed in the respective documents.

Row | Structure (SMILES) | pest or weed control at 20 g/ha (MATIN [1]) [%] | pest or weed control at 80 g/ha (MATIN [1]) [%] | pest or weed control at 20 g/ha (STEME) [%] | pest or weed control at 20 g/ha (AVEFA) [%] | pest or weed control at 20 g/ha (PHBPU [2]) [%] | pest or weed control at 20 g/ha (DIGSA [3]) [%] | pest or weed control at 20 g/ha (MATIN [5]) [%] | pest or weed control at 20 g/ha (DIGSA [6]) [%] | pest or weed control at 80 g/ha (DIGSA [6]) [%] | pest or weed control at 320 g/ha (MATIN [1]) [%] | pest or weed control at 80 g/ha (STEME) [%] | pest or weed control at 80 g/ha (AVEFA) [%] | pest or weed control at 80 g/ha (PHBPU [2]) [%] | pest or weed control at 80 g/ha (DIGSA [3]) [%] | pest or weed control at 80 g/ha (MATIN [5]) [%] | pest or weed control at 320 g/ha (DIGSA [6]) [%] | other results
1 | CCn1nnnc1NC(=O)c1ccc(Cl)c(C(=O)NC2CC2)c1Cl [Example 2-173] | 100 | 100 | 100 | 100 | 90 | 80 | 100 | 100 | 100 |  |  |  |  |  |  |  | pest or weed control at 5 g/ha (STEME): 100%; pest or weed control at 5 g/ha (PHBPU [2]; dosage 5 g/ha): 80%; pest or weed control at 80 g/ha (PHBPU [4]): 90%
2 | CCn1nnnc1NC(=O)c1ccc(C(F)(F)F)c(C(=O)NC2CC2)c1C [Example 2-27] | 100 | 100 | 100 | 100 | 90 | 100 | 100 | 100 | 100 |  |  |  |  |  |  |  | pest or weed control at 5 g/ha (STEME): 100%; pest or weed control at 5 g/ha (AVEFA; 5 g/ha): 90%; pest or weed control at 5 g/ha (DIGSA [3]): 100%; pest or weed control at 20 g/ha (PHBPU [4]; dosage 20 g/ha): 80%; pest or weed control at 80 g/ha (PHBPU [4]): 90%; pest or weed control at 5 g/ha (MATIN [5]): 100%
3 | CCn1nnnc1NC(=O)c1ccc(C(F)(F)F)c(C(=O)NC)c1SC [Example 2-81] |  | 100 | 90 | 90 |  | 90 | 100 |  | 100 | 100 | 100 | 100 | 90 | 90 | 100 | 100 | 
4 | CCn1nnnc1NC(=O)c1ccc(C(F)(F)F)c(C(=O)NC(C)=O)c1Cl [Example 2-337] | 80 | 100 | 90 |  |  |  |  | 90 | 100 | 100 | 90 | 90 | 80 | 90 |  | 100 | pest or weed control at 320 g/ha (PHBPU [4]; dosage 320 g/ha): 90%
5 | CCNC(=O)c1c(C(F)F)ccc(C(=O)Nc2nnnn2C)c1Cl [Example 1-148] |  | 100 | 90 | 100 |  | 90 | 100 |  | 100 | 100 | 90 | 100 |  | 90 | 100 | 100 | 
6 | CCNC(=O)c1c(C(F)F)ccc(C(=O)Nc2nnnn2CC)c1Cl [Example 2-148] |  | 100 | 80 | 90 |  | 90 | 90 |  | 100 | 100 | 80 | 90 |  | 90 | 90 | 100 | 
7 | CCc1c(C(=O)Nc2nnnn2C)ccc(C(F)(F)F)c1C(=O)NC1CC1 [Example 1-273] | 100 | 100 | 100 | 90 | 80 | 90 | 100 | 100 | 100 |  |  |  |  |  |  |  | pest or weed control at 5 g/ha (STEME): 90%; pest or weed control at 5 g/ha (DIGSA [3]): 90%; pest or weed control at 80 g/ha (PHBPU [4]): 100%; pest or weed control at 5 g/ha (MATIN [5]): 100%
8 | CNC(=O)c1c(C(F)(F)F)ccc(C(=O)Nc2nnnn2C)c1SC [Example 1-81] |  | 100 | 90 |  |  | 80 | 80 |  | 100 | 100 | 90 | 90 | 80 | 90 | 100 | 100 | 
9 | CCNC(=O)c1c(C(F)(F)F)ccc(C(=O)Nc2nnnn2CC)c1SC [Example 2-82] |  | 100 | 80 | 90 |  | 90 | 90 |  | 100 | 100 | 90 | 90 |  | 90 | 90 | 100 | 
10 | CCn1nnnc1NC(=O)c1ccc(C(F)F)c(C(=O)NC)c1Cl [Example 2-147] |  | 100 | 80 | 90 |  | 90 | 100 |  | 100 | 100 | 90 | 100 | 80 | 90 | 100 | 100 | Herbicidal action against ALOMY (harmful plants): 90; Herbicidal action against AVEFA (harmful plants): 100; Herbicidal action against HORMU (harmful plants; HORMU): 90; Herbicidal action against SETVI (harmful plants): 100; Herbicidal action against STEME (harmful plants): 70
11 | CNC(=O)c1c(C(F)F)ccc(C(=O)Nc2nnnn2C)c1Cl [Example 1-147] |  | 90 | 80 | 90 | 80 | 90 | 100 |  | 100 | 100 | 90 | 90 | 90 | 90 | 100 | 100 | Herbicidal action against ALOMY (harmful plants): 90; Herbicidal action against AMARE (harmful plants; AMARE): 100; Herbicidal action against AVEFA (harmful plants): 100; Herbicidal action against SETVI (harmful plants): 100; Herbicidal action against STEME (harmful plants): 100; Herbicidal action against VIOTR (harmful plants; VIOTR): 100
